These results are taken from PubChem BioAssay AID330 (DTP/NCI, 2004).

The test system of this experiment is P388 leukemia ip, CD2F1 mice, survival T/C. As to the kind of experiment: NCI In Vivo Anticancer Drug Screen. Data for tumor model P388 Leukemia (intraperitoneal) in CD2F1 (CDF1) mice. Conditions: endpoint: median survival time, higher = longer survival. Summed up: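 Mice carrying the transplanted tumor received test compound or vehicle. Survival was recorded in each group, and the value is the treated-group measurement divided by that of the vehicle-treated control group.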

Where [1] appears, read: dose: 50.0 mg/kg/injection, schedule: Q01DX005 (ip), vehicle: Klucel (hydroxypropylcellulose) (HPC).
The mark [2] stands for this setting: dose: 100.0 mg/kg/injection, schedule: Q01DX005 (ip), vehicle: Klucel (hydroxypropylcellulose) (HPC).
Setting [3] is: dose: 200.0 mg/kg/injection, schedule: Q01DX005 (ip), vehicle: Klucel (hydroxypropylcellulose) (HPC).
Setting [4] is: dose: 50.0 mg/kg/injection, schedule: Q01DX009 (ip), vehicle: saline.
Setting [5] is: dose: 100.0 mg/kg/injection, schedule: Q01DX009 (ip), vehicle: saline.

“And” between values parts separate entries of the source, which are not always exact repeats. Equal values may be shown once. Inconclusive results and toxic doses are left out. Bridge positions count the residues as written; N and C are the ends. Peptide text beside a SMILES is read from it. I, II: the chains in the order shown.

Consider `O=C1CN(c2ccccc2)C(=O)CN1/N=C/c1ccc(Cl)cc1`, for which the T/C was 91 % of control (dose: 50.0 mg/kg/injection, schedule: Q01DX009 (ip), vehicle: saline with Tween-80); 99 % of control (dose: 100.0 mg/kg/injection, schedule: Q01DX009 (ip), vehicle: saline with Tween-80); 102 % of control (dose: 200.0 mg/kg/injection, schedule: Q01DX009 (ip), vehicle: saline with Tween-80).

Turning to `CCCCCCCCCCCCCCCCC1(O)OC(=O)C(C)=C1C` (configuration not stated), the T/C is 100 % of control (dose: 12.5 mg/kg/injection, schedule: Q04DX003 (ip), vehicle: saline with Tween-80); 108 % of control (dose: 25.0 mg/kg/injection, schedule: Q04DX003 (ip), vehicle: saline with Tween-80); 106 % of control (dose: 50.0 mg/kg/injection, schedule: Q04DX003 (ip), vehicle: saline with Tween-80).

`COc1cc(OC)c(/C=N/Nc2cc(C)c3ccc(OC)cc3n2)c(OC)c1`: the T/C is 105 % of control under setting [1], 113 % of control under setting [2] and 114 % of control under setting [3].

Regarding `c1ccc(C2(c3ccccc3)CCc3ccccc3O2)cc1`, the T/C (dose: 100.0 mg/kg/injection, schedule: Q04DX003 (ip), vehicle: Klucel (hydroxypropylcellulose) (HPC)) is 105 % of control; the T/C (dose: 200.0 mg/kg/injection, schedule: Q04DX003 (ip), vehicle: Klucel (hydroxypropylcellulose) (HPC)) is 99 % of control; the T/C (dose: 400.0 mg/kg/injection, schedule: Q04DX003 (ip), vehicle: Klucel (hydroxypropylcellulose) (HPC)) was 99 % of control.

Regarding `CCCCN(CCCC)CCC(C)(O)c1cccc2ccccc12` (configuration not stated), the T/C is 98 % of control (dose: 25.0 mg/kg/injection, schedule: Q01DX005 (ip), vehicle: saline with Tween-80); 108 % of control (dose: 50.0 mg/kg/injection, schedule: Q01DX005 (ip), vehicle: saline with Tween-80); 92 % of control (dose: 100.0 mg/kg/injection, schedule: Q01DX005 (ip), vehicle: saline with Tween-80).

For `C=CC1(C)CCC(C(C)C(=O)/C=C/C(C)(C)O)O1` (configuration not stated), the T/C runs as follows: (dose: 22.0 mg/kg/injection, schedule: Q01DX005 (ip), vehicle: Klucel (hydroxypropylcellulose) (HPC)) 105 % of control; (dose: 44.0 mg/kg/injection, schedule: Q01DX005 (ip), vehicle: Klucel (hydroxypropylcellulose) (HPC)) 113 % of control; (dose: 88.0 mg/kg/injection, schedule: Q01DX005 (ip), vehicle: Klucel (hydroxypropylcellulose) (HPC)) 114 % of control; (dose: 176.0 mg/kg/injection, schedule: Q01DX005 (ip), vehicle: Klucel (hydroxypropylcellulose) (HPC)) 118 % of control.

`CN1c2ccc(Br)c[c]2[Sn]([CH3])([CH3])[c]2cc(Br)ccc21`: the T/C is 99 % of control (dose: 60.0 mg/kg/injection, schedule: Q01DX005 (ip), vehicle: saline with Tween-80); 100 % of control (dose: 120.0 mg/kg/injection, schedule: Q01DX005 (ip), vehicle: saline with Tween-80); 104 % of control (dose: 240.0 mg/kg/injection, schedule: Q01DX005 (ip), vehicle: saline with Tween-80).

As for `NC(CCC(=O)NC(CS)C(=O)O)C(=O)O` (configuration not stated), the T/C is, setting by setting: under setting [4], 100 % of control; under setting [5], 111 % of control.

In the case of `NC(S(=O)(=O)O)S(=O)(=O)O`, the T/C is 105 % of control under setting [4]; 110 % of control under setting [5]; 96 % of control (dose: 200.0 mg/kg/injection, schedule: Q01DX009 (ip), vehicle: saline).

As to `COC(=O)C1C[S][Sn]2([NH]1)[NH]C(C(=O)OC)C[S]2` (configuration not stated), the T/C reads like this: under setting [1], 108 % of control; under setting [2], 106 % of control; under setting [3], 101 % of control.

On to `COc1ccc(C2CC3CCC(C2O)N3C)cc1` (configuration not stated), for which the T/C is 103 % of control under setting [1] and 96 % of control under setting [2].

For `NC(CSSCC(N)C(=O)NC(Cc1ccc(O)cc1)C(=O)O)C(=O)NC(Cc1ccc(O)cc1)C(=O)O` (stereo not drawn) (I: H-Cys-Tyr-OH / II: H-Cys-Tyr-OH; disulfide I:1-II:1; configuration not given here), the T/C was 110 % of control (dose: 50.0 mg/kg/injection, schedule: Q01DX005 (ip), vehicle: saline); 111 % of control (dose: 100.0 mg/kg/injection, schedule: Q01DX005 (ip), vehicle: saline); 103 % of control (dose: 200.0 mg/kg/injection, schedule: Q01DX005 (ip), vehicle: saline).

As to `C/[N+]([O-])=N\Nc1ccccc1SCCSc1ccccc1N/N=[N+](\C)[O-]`, the T/C is, setting by setting: (dose: 60.0 mg/kg/injection, schedule: Q01DX005 (ip), vehicle: Klucel (hydroxypropylcellulose) (HPC)) 91 % of control; (dose: 120.0 mg/kg/injection, schedule: Q01DX005 (ip), vehicle: Klucel (hydroxypropylcellulose) (HPC)) 89 % of control.

Consider `COc1ccc(C[C@H](N)C(=O)NC2C(CO)OC(n3cnc4c(N(C)C)ncnc43)C2O)cc1` (some centres not stated), for which the T/C was 115 % of control (dose: 4.0 mg/kg/injection, schedule: Q03HX024 (ip), vehicle: saline); 112 % of control (dose: 8.0 mg/kg/injection, schedule: Q01DX005 (ip), vehicle: saline); 107 % of control (dose: 8.0 mg/kg/injection, schedule: Q01DX009 (ip), vehicle: saline); 106 % of control (dose: 16.0 mg/kg/injection, schedule: Q01DX005 (ip), vehicle: saline); 100 % of control (dose: 16.0 mg/kg/injection, schedule: Q01DX009 (ip), vehicle: saline); 92 % of control (dose: 16.0 mg/kg/injection, schedule: Q03HX024 (ip), vehicle: saline). The T/C was 92 % of control (dose: 20.0 mg/kg/injection, schedule: Q01DX009 (ip), vehicle: water); 120 % of control (dose: 22.0 mg/kg/injection, schedule: Q01DX009 (ip), vehicle: saline with Tween-80); 106 % of control (dose: 32.0 mg/kg/injection, schedule: Q01DX005 (ip), vehicle: saline); 109 % of control (dose: 32.0 mg/kg/injection, schedule: Q01DX009 (ip), vehicle: saline); 107 % of control (dose: 32.0 mg/kg/injection, schedule: Q04DX003 (ip), vehicle: saline); 122 % of control (dose: 33.0 mg/kg/injection, schedule: Q01DX009 (ip), vehicle: saline with Tween-80). The T/C is, setting by setting: (dose: 40.0 mg/kg/injection, schedule: Q01DX009 (ip), vehicle: water) 92 % of control; (dose: 60.0 mg/kg/injection, schedule: Q01DX009 (ip), vehicle: water) 90 % of control; (dose: 64.0 mg/kg/injection, schedule: Q01DX001 (ip), vehicle: saline) 101 % of control and 92 % of control; (dose: 64.0 mg/kg/injection, schedule: Q01DX005 (ip), vehicle: saline) 114 % of control; (dose: 64.0 mg/kg/injection, schedule: Q01DX009 (ip), vehicle: saline) 109 % of control; (dose: 64.0 mg/kg/injection, schedule: Q04DX003 (ip), vehicle: saline) 111 % of control. Besides, the T/C (dose: 80.0 mg/kg/injection, schedule: Q01DX009 (ip), vehicle: water) was 92 % of control; the T/C (dose: 100.0 mg/kg/injection, schedule: Q01DX009 (ip), vehicle: water) is 95 % of control; the T/C (dose: 100.0 mg/kg/injection, schedule: Q04DX003 (ip), vehicle: saline with Tween-80) is 104 % of control; the T/C (dose: 128.0 mg/kg/injection, schedule: Q01DX001 (ip), vehicle: saline) is 118 % of control and 97 % of control; the T/C (dose: 128.0 mg/kg/injection, schedule: Q01DX005 (ip), vehicle: saline) was 124 % of control; the T/C (dose: 128.0 mg/kg/injection, schedule: Q01DX009 (ip), vehicle: saline) is 118 % of control. Also, the T/C reads like this: (dose: 128.0 mg/kg/injection, schedule: Q04DX003 (ip), vehicle: saline) 100 % of control; (dose: 150.0 mg/kg/injection, schedule: Q01DX009 (ip), vehicle: saline sonified) 150 % of control; (dose: 200.0 mg/kg/injection, schedule: Q04DX003 (ip), vehicle: saline with Tween-80) 95 % of control; (dose: 256.0 mg/kg/injection, schedule: Q01DX001 (ip), vehicle: saline) 111 % of control; (dose: 256.0 mg/kg/injection, schedule: Q04DX003 (ip), vehicle: saline) 90 % of control; (dose: 400.0 mg/kg/injection, schedule: Q04DX003 (ip), vehicle: saline with Tween-80) 95 % of control.
